Assay results published in patent US10080365B2, “Use of strobilurin type compounds for combating phytopathogenic fungi resistant to Qo inhibitors” (BASF SE, priority 2011, dated 2018).
Read-outs that look alike come from different tables or passages of the source.

Assays:
[1] = tested on: Septoria tritici; experiment: Field Trial 1: efficacy against Septoria tritici on winter wheat (Böhl-Iggelheim); assay type: in vivo, Septoria tritici on winter wheat (cv. Riband); details: 200 g a.i./ha; for Disease (%) 20 DAA: applied at GS 32 and 21 days later at GS 39, natural infection, 20 days after last treatment; for Disease (%) 33 DAA: applied at GS 32 and GS 39, 33 days after last treatment; for Disease (%) 46 DAA: applied at GS 32 and GS 39, 46 days after last treatment; for control of Qo inhibitor-resistant Septoria tritici isolates, in words: commercial dose level
Procedure: (§1) Compound I-6 was used as 50 g/l EC formulation. Pyraclostrobin was used as commercial product HEADLINE.
The trial was conducted under field conditions in Böhl-Iggelheim, Rhineland-palatinate, Germany. Seeds of winter wheat (cv. Riband) were planted and grown under standard conditions with adequate supply of water and nutrients. At growing stage GS 32 (Apr. 14, 2011), a first compound treatment (200 g a.i. per ha) was made with a water volume of 400 L/ha, which was repeated 21 days later at growing stage GS 39. No further fungicide treatments were applied. Infection with fungal pathogens (e.g. Septoria tritici) occurred naturally. The evaluation of the disease incidences for Septoria tritici 20, 33 and 46 days after the last treatment (DAA) are shown in table Ill. In the last row, the evaluation of the percentage of Qo inhibitor-resistant Septoria tritici isolates with the G143A mutation after the treatments is given.

[2] = tested on: Septoria tritici (Qo-inhibitor-resistant, G143A mutant); experiment: Microtiter test, Septoria tritici Qo-inhibitor-resistant G143A mutant (Use Example 1); assay type: cell-based; details: for IC50: read-out: Resistant Septoria tritici isolate (G143A mutation) (R-IC50)
Procedure: (§2) The active substances were formulated separately as a stock solution in dimethyl sulfoxide (DMSO) at a concentration of 10 000 ppm.
(§3) Activity against the Septoria blotch pathogen caused by Septoria tritici in the microtiter test
(§4) Fungal strains used: • a) Septoria tritici (Qo-inhibitor sensitive, wild-type) • b) Septoria tritici (Qo-inhibitor-resistant, G143A mutant)
(§5) 100 ml 2% Malt extract in water at pH6.8 were inoculated with microspores from 2 week old cultures grown on 2% malt extract+2% agar in Petri dishes and incubated for 3 days on a rotary shaker at 24° C. und 150 rpm. The culture was harvested, glycerol was added (15% (v/v) and kept frozen at −20° C. in aliquots of 1 ml.
(§6) 1 ml stock suspension was thawed and suspended into 800 ml of 2% malt extract in water at pH 6.8. Compounds were diluted from stock solution in (dimethylsulfoxide) DMSO in 10 steps. The compound solutions were diluted 1/5 with sterile deionized water before use. 5 μl of the compound solutions were transferred into empty microplates. The plates were then filled with 195 μl of the microspore suspension of each strain.
(§7) The antifungal activity was determined by measuring the turbidity of a culture in 96-well microplates in the presence of test compounds. Fungal growth was measured by recording the optical density at 620 nm every 15 h for 150 h. The relative antifungal activity was calculated by comparison of the effect of the test compounds with the effect of a DMSO control and a standard fungicide.
(§8) IC50-values (concentration of test compound resulting in 50% inhibition of fungal growth) were calculated from the resulting dose-response for each compound and strain. The initial concentration of the test compounds and the 10 steps of dilution (1:4 each) allowed IC50-values from 0.001 to 100 μmol/l (μM) to be assessed.

[3] = tested on: Septoria tritici (Qo-inhibitor sensitive, wild-type); experiment: Microtiter test, Septoria tritici Qo-inhibitor sensitive wild-type (Use Example 1); assay type: cell-based; details: turbidity at 620 nm, read-out: Sensitive Septoria tritici isolate (wild type) (S-IC50)
Procedure: as §2, §3, §4, §5, §6, §7, §8

[4] = tested on: Septoria tritici isolates containing the G143A in the cytochrome b gene; experiment: Glass house Trial 3: control of leaf blotch on wheat caused by two Septoria tritici isolates containing G143A; assay type: in vivo; details: % diseased leaf area after about 28 days
Procedure: The spray solutions were prepared in several steps:
The stock solution was prepared as follows: 1.26 ml of a 1:1 mixture of cyclohexanone and dimethylsulfoxide was added to 8.4 mg of active ingredient. Next, 40.74 ml of a mixture of water, acetone (10%), the emulsifier Wettol (0.1%) and the wetting agent Silwet (0.05%) was added. This stock solution was then further diluted with the described solvent-emulsifier-water mixture to the desired concentrations.
Trial 3: Control of Leaf Blotch on Wheat Caused by Caused by Two Septoria tritici Isolates Containing the G143A in the Cytochrome b Gene for their Cytochrome Bc1 Complex
Wheat plants were grown in pots. These plants were sprayed to run-off with an aqueous suspension, containing the desired concentration of active ingredient. The next day, the treated plants were inoculated with an aqueous suspension of Septoria tritici. After inoculation, the trial plants were covered with a lid and immediately transferred to a chamber with a relative humidity of about 83 to 85% and 19.5 to 20° C. After 4 days the lid was removed. Altogether, the trial plants were cultivated for about 28 days in that greenhouse chamber. The extent of fungal attack on the leaves was then visually assessed as % diseased leaf area.

[5] = tested on: Septoria tritici; experiment: Field Trial 2: efficacy against Septoria tritici on winter wheat (Limburgerhof); assay type: in vivo, Septoria tritici on winter wheat (cv. Riband); details: 200 g a.i./ha; for Disease (%) 19 DAA: applied at GS 33 and 26 days later at GS 39, natural infection, 19 days after last treatment; for Disease (%) 34 DAA: applied at GS 33 and GS 39, 34 days after last treatment; for antifungal activity against Qo inhibitor-resistant Septoria tritici, in words: commercial dose level
Procedure: as §1
This trial was conducted under field conditions in Limburgerhof, Rhineland-Palatinate, Germany. Seeds of winter wheat (cv. Riband) were planted and grown under standard conditions with adequate supply of water and nutrients. At growing stage GS 33 (Apr. 8, 2011), a first compound treatment (200 g a.i per ha) was made with a water volume of 400 L/ha, which was repeated 26 days later at growing stage GS 39. No further fungicide treatments were applied. Infection with fungal pathogens (e.g. Septoria tritici) occurred naturally. The evaluation of the disease incidences for Septoria tritici 19 and 34 days after the last treatment (DAA) are shown in Table IV. In the last row, the evaluation of the percentage of Qo inhibitor-resistant Septoria tritici isolates with the G143A mutation after the treatments is given.

[6] = Resistant Septoria tritici isolate 1 (G143A mutation), 12.5 ppm
[7] = Resistant Septoria tritici isolate 1 (G143A mutation), 25 ppm
[8] = Resistant Septoria tritici isolate 1 (G143A mutation), 50 ppm
[9] = Resistant Septoria tritici isolate 1 (G143A mutation), 100 ppm
[10] = Resistant Septoria tritici isolate 1 (G143A mutation), 200 ppm
[11] = Resistant Septoria tritici isolate 2 (G143A mutation), 12.5 ppm
[12] = Resistant Septoria tritici isolate 2 (G143A mutation), 25 ppm
[13] = Resistant Septoria tritici isolate 2 (G143A mutation), 50 ppm
[14] = Resistant Septoria tritici isolate 2 (G143A mutation), 100 ppm
[15] = Resistant Septoria tritici isolate 2 (G143A mutation), 200 ppm

Compound | IC50 ([2]; Zymoseptoria tritici) [nM] | IC50 ([3]; Zymoseptoria tritici) [nM] | Disease level (%) [4, 6] [%] | Disease level (%) [4, 7] [%] | Disease level (%) [4, 8] [%] | Disease level (%) [4, 9] [%] | Disease level (%) [4, 10] [%] | Disease level (%) [4, 11] [%] | Disease level (%) [4, 12] [%] | Disease level (%) [4, 13] [%] | Disease level (%) [4, 14] [%] | Disease level (%) [4, 15] [%] | also measured
CNC(=O)C(=N/OC)/C(C)=C\COc1ccn(-c2ccc(Cl)cc2)n1 [Compound I-6, (Z)-5-[1-(4-Chloro-phenyl)-1H-pyrazol-3-yloxy]-2-[(E)-methoxyimino]-3-methyl-pent-3-enic acid methyl amide] | 8300 | 340 | 50 | 10 | 3 | 3 | 1 | 20 | 15 | 3 | 3 | 0 | Disease (%) 20 DAA [1]: 1%; Disease (%) 33 DAA [1]: 6%; Disease (%) 46 DAA [1]: 36%; control of Qo inhibitor-resistant Septoria tritici isolates, in words [1]: capable to control; Resistance factor RF = R-IC50/S-IC50 ([2]; {}): 24; Disease (%) 19 DAA [5]: 3%; Disease (%) 34 DAA [5]: 12%; antifungal activity against Qo inhibitor-resistant Septoria tritici, in words [5]: capable to reduce the infection
CO/C=C(C(=O)OC)\C(C)=C/COc1ccn(-c2ccc(Cl)cc2)n1 [Compound I-7, (Z)-5-[1-(4-Chloro-phenyl)-1H-pyrazol-3-yloxy]-2-[1-methoxy-meth-(E)-yl-idene]-3-methyl-pent-3-enoic acid methyl ester] |  |  | 100 | 80 | 20 | 3 | 3 | 90 | 15 | 5 | 1 | 0 | 
CNC(=O)C(=NOC)C(C)=CCOc1ccn(-c2ccc(F)cc2F)n1 [Compound I-11] |  |  | 100 | 90 | 30 | 3 | 1 | 70 | 50 | 30 | 5 | 1 | 
CNC(=O)C(=NOC)C(C)=CCOc1ccn(-c2ccc(F)cc2Cl)n1 [Compound I-14] |  |  | 100 | 80 | 70 | 15 | 3 | 90 | 70 | 15 | 5 | 1 | 
Cn1nnn(-c2ccccc2COc2ccn(-c3ccc(Cl)cc3)n2)c1=O [Compound I-211] |  |  | 80 | 60 | 10 | 3 | 1 | 30 | 10 | 5 | 1 | 0 | IC50 ([2]; microtiter test, Qo-inhibitor-resistant G143A mutant, turbidity at 620 nm): 1100 nM; Resistance factor RF = R-IC50/S-IC50 ([2]; ratio of IC50 for G143A resistant isolate to IC50 for wild-type sensitive isolate): 2.6; IC50 [3]: 440 nM
COC(=O)N(OC)c1ccccc1COc1ccn(-c2ccc(Cl)cc2)n1 [Pyraclostrobin, reference compound] | 3400 | 1.2 | 100 | 100 | 100 | 90 | 30 | 60 | 60 | 40 | 25 | 15 | Disease (%) 20 DAA [1]: 8%; Disease (%) 33 DAA [1]: 32%; Disease (%) 46 DAA [1]: 93%; control of Qo inhibitor-resistant Septoria tritici isolates, in words [1]: insufficient control level; Resistance factor RF = R-IC50/S-IC50 ([2]; {}): 2882; Disease (%) 19 DAA [5]: 5%; Disease (%) 34 DAA [5]: 28%; antifungal activity against Qo inhibitor-resistant Septoria tritici, in words [5]: only slightly above the untreated control
CON=C(C(=O)OC)c1ccccc1CON=C(C)c1cccc(C(F)(F)F)c1 [Trifloxystrobin, reference compound] | > 100000 | 520 | 100 | 100 | 90 | 90 | 90 | 80 | 70 | 70 | 70 | 60 | 
